The text below walks through data of publication PMC11866022, “Long-Chain Cyclic Arylguanidines as Multifunctional Serotonin Receptor Ligands with Antiproliferative Activity” (ACS Omega, 2025).

Molecules are shown by their SMILES.

A short description of data set [1]: Metabolic stability in mouse liver microsomes. In kind it is in vitro ADME. Particulars: MLMs; for main metabolic pathway / metabolic stability, % of remaining: 120 min. The source says:
Moving on to the next parameter, which is metabolism, we determined metabolic stability, using mouse liver microsomes (MLMs). […]
Main metabolic pathways are marked in red.

The subject of a further data set is U87MG glioblastoma cells. The data set can be described thus: Antiproliferative activity (MTS), U87MG. In kind it is cell-based, human. Particulars: Homo sapiens, U-87 MG; MTS assay. Here is the method: (§1) These cell lines were characterized by different mutation profiles, the main one being the variable status of the p53 protein. In detail, U87MG cells have a wild-type p53 protein, while astrocytoma and the rest of GBM cells harbor mutated p53 protein. Additional assays were performed on MCF7 breast cancer and AsPC-1 pancreatic cancer cells. The wide range of tested lines was aimed at screening the anticancer potential of the tested compounds. The first represents one of the most common and the second one of the most aggressive cancers in the world. Comparing the activity of compounds on GBM cells to other types of cancer may reveal their selectivity and usefulness in targeted therapies. The cytotoxicity of the compounds on normal human astrocytes (NHA) and Feline catus astrocyte (PG-4) was determined. Tests on normal lines serve to verify the potential toxicity of the tested compounds on healthy cells. Due to the targeting of CNS tumors, astrocytes were selected as normal lines.
(§2) The detailed procedure is presented in previous publications.[53] […] Cells were cultured in appropriate media, supplemented with FBS, antibiotics, and other supplements, and incubated at 37 °C with 5% CO2. […] Cell viability was assessed using the MTS assay, and the inhibitory concentration (IC50) was calculated using GraphPad Prism 8.0. Each compound was tested in triplicate across multiple experiments.
Supplementary materials - Biological research
B) U87MG glioblastoma multiforme line.
and U87MG glioblastoma multiforme line for C) PP 3; D) PP 6; E) PP 8; F) PP 10; G) PP 11; H) PP
In general terms: Tetrazolium dyes change colour on reduction, which living cells bring about.

In the next data set the test system is HepG2 hepatoma cells. The data set can be described thus: Hepatotoxicity (MTS), HepG2. The note with it: 48 h; for hepatotoxic effect on HepG2: 1–10 μM; for HepG2 cell viability: 50 or 100 μM. It counts as cell-based, human. Here is the method: As a next step, we decided to investigate the potential toxicity of our lead compounds by assessing their toxic effects on the liver (in vitro), heart, and brain (in vivo). The safety profile was assessed through a hepatotoxicity assay using HepG2 hepatoma cells. (Figures 2E,F, 3E,F).

In a further data set the target is 5-HT5A (Homo sapiens, UniProt P47898). The data set can be described thus: Radioligand binding assay, 5-HT5A ([3H]-LSD). The note with it: Table 3, unit inferred; 3.5 nM [3H]-LSD. As to the method:
(§3) Their functional activity was also evaluated by assessing their ability to inhibit agonist-induced cAMP production in HEK293 cells (Table 3). Extended radioisotope tests were aimed at detecting potential affinity for other aminergic receptors, whose role in cancer treatment may be important. Functions were tested for all receptors. The essence of functional tests results from the fact that serotonin stimulates tumor progression. Therefore, the ligand should have the potential to reduce its concentration, i.e., act as an antagonist.[39]
The detailed procedure is presented in previous publications.[53] Assays were performed by incubating for 1 h at 37 °C (room temperature for 5-HT1A) in 200 μL volumes on 96-well plates. The reaction was terminated by rapid filtration using Unifilter plates, and radioactivity on the filters was measured with a PerkinElmer Microbeta plate reader. Radioligands used were:
Eight concentrations (10^–4 to 10^–11 M) were tested in triplicate for each compound. Inhibition constants (Ki) were calculated using the Cheng–Prusoff equation.[54] The results are expressed as the means of at least two independent experiments.

The nature of the next data set: in vitro. The note with it: PAMPA.
A further data set deals with T1, 5-HT6 (Homo sapiens, UniProt P50406).
T1 construct: expressed in transfected cells; host or cells: HEK293
T1 sequence (P50406 whole entry): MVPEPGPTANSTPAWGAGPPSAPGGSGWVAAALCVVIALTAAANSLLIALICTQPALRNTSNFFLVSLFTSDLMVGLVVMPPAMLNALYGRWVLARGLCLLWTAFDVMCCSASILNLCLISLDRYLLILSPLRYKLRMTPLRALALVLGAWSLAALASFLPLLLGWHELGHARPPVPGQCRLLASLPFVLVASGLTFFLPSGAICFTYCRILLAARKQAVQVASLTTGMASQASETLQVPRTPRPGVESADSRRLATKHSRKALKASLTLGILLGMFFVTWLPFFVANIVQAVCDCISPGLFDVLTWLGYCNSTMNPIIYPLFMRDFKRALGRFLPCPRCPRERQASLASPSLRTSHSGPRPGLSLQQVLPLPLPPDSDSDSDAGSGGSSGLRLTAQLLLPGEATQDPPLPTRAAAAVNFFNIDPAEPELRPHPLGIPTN
The data set can be described thus: Functional cAMP assay (LANCE Ultra), 5-HT6. In kind it is cell-based. The note with it: for Kb: Table 3, unit inferred, cAMP, antagonist mode, 5-CT; for function at 5-HT6: in words. As to the method:
as §3
The detailed procedure is presented in previous publications.[53] The functional activity of the compounds was assessed using the LANCE Ultra cAMP detection kit (PerkinElmer). […] For other receptors (5-HT7R, 5-HT1AR, and 5-HT6R), 5-CT was used at 10, 100, and 1000 nM, respectively. Each compound was tested in triplicate across eight concentrations. The inhibitory constant (Kb) for each antagonist was calculated using the Cheng–Prusoff equation.
(cAMP levels reflect the balance of adenylyl cyclase and phosphodiesterase activity.)

The test system of a further data set is U-251 glioblastoma cells. In words: Antiproliferative activity (MTS), U-251. In kind it is cell-based, human. Particulars: Homo sapiens, U-251; MTS assay, 72 h. As to the method: as §1, §2
Data set [2] relates to normal human astrocytes (NHA). The data set can be described thus: Cytotoxicity (MTS), normal human astrocytes. Particulars: for IC50: Homo sapiens, Astrocyte, 72 h, normal human astrocytes, MTS assay. In kind it is cell-based. As to the method:
as §1, with “The chosen group of ligands was further examined for their ability to inhibit proliferation across multiple cancer cell lines related to the CNS system (1321N1, U87MG, LN-229, and U-251). These” for “These”
(§4) The detailed procedure is presented in previous publications.[53] Briefly, the study utilized various human cancer and normal cell lines, including LN-229 (glioblastoma), MCF7 (breast carcinoma), HepG2 (hepatoma), U-251 (glioblastoma), U87MG (glioblastoma), AsPC-1 (pancreatic adenocarcinoma), and NHA (normal human astrocytes). Cells were cultured in appropriate media, supplemented with FBS, antibiotics, and other supplements, and incubated at 37 °C with 5% CO2. Compounds were dissolved in DMSO, prepared at various concentrations (1–25 μM), and applied to the cells for 72 h. Cell viability was assessed using the MTS assay, and the inhibitory concentration (IC50) was calculated using GraphPad Prism 8.0. Each compound was tested in triplicate across multiple experiments.

A short description of data set [3]: Solubility in DMSO and 10% DMSO in PBS buffer. It counts as physicochemical. The note with it: symbols not defined; for Solubility, 10% DMSO, 1 mM: 10% DMSO in PBS buffer. As to the method:
for 24 h. […] The IC50 were calculated as
Table S1. Solubility in DMSO and 10% DMSO in PBS buffer
3. Absorption – PAMPA permeability test
*Permeability coefficient.
**CFN = caffeine, well-permeable control

Data set [4] relates to AsPC-1 pancreatic cancer cells. The data set can be described thus: Antiproliferative activity (MTS), AsPC-1. In kind it is cell-based, human. The note with it: Homo sapiens, ASPC1; MTS assay, 72 h. Here is the method:
as §1, with “The chosen group of ligands was further examined for their ability to inhibit proliferation across multiple cancer cell lines related to the CNS system (1321N1, U87MG, LN-229, and U-251). These” for “These”
as §4

Chain of 5-HT5A (P47898 whole entry, species assumed): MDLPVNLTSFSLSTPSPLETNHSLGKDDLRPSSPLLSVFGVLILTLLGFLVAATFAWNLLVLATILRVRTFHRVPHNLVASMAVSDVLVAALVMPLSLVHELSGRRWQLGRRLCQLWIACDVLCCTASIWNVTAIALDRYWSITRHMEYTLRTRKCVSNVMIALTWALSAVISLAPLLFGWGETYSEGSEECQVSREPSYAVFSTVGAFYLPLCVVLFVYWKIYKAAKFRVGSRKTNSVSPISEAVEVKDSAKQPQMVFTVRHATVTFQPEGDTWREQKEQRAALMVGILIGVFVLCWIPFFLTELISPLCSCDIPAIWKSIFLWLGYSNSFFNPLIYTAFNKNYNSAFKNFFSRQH

By IC50 is commonly meant the point on the concentration scale where inhibition reaches its midpoint. Low readings indicate greater potency in that assay, high ones weaker potency in that assay. A word on the Ki: it is the equilibrium dissociation constant of an inhibitor or competing ligand from its target. Read a high Ki as lower affinity. As usually defined, the Papp is a coefficient for how fast a substance crosses the barrier. Read a high Papp as ready permeation. By Kb is commonly meant the equilibrium dissociation constant of an antagonist, usually derived from a functional assay. Regarding `CC1NC(NCCCCCCNS(=O)(=O)c2cccc3ccccc23)=Nc2ccccc21` (centres unmarked) [PP 10, N-{6-[(4-Methyl-3,4-dihydroquinazolin-2-yl)amino]hexyl}naphthalene-1-sulfonamide], in [1], the “number of potential metabolites identified” value came to 14; the main metabolic pathway entry was “double hydroxylation and double bond reduction or double hydroxylation and ring opening”; the “metabolic stability, % of remaining” value came out at 66.60%. Also, the IC50 with U87MG glioblastoma cells was 20.7 ± 1.2 µM. Also, in the data set with HepG2 hepatoma cells, the “hepatotoxic effect on HepG2” value is given as “no hepatotoxic effects” and the HepG2 cell viability entry was “statistically significant decrease in cell viability”. In addition, the inhibitory constant (Ki) on 5-HT5A came out at 59 nM. In “in vitro”, the Papp was 0.03 ×10⁻⁶ cm/s. In addition, at 5-HT6, the Kb was determined as 36 nM and the “function at 5-HT6” value is given as “antagonist”. Also, the IC50 with U-251 glioblastoma cells was over 25 µM. The compound also gave an IC50 in [2] of 12.6 ± 0.4 µM. In data set [3], the “Solubility, 10% DMSO, 1 mM” value is listed as “+ + +” and the “Solubility, 100% DMSO, 10 mM” value is reported as “+ + +”. Also, the IC50 in [4] was over 25 µM.
Turning to `CC1NC(NCCCCCCNS(=O)(=O)c2c(Cl)ccc3ccccc23)=Nc2ccccc21` (centres unmarked) [PP 13, 2-Chloro-N-{6-[(4-methyl-3,4-dihydroquinazolin-2-yl)amino]hexyl}naphthalene-1-sulfonamide], in data set [1], the “number of potential metabolites identified” value worked out at 11; the main metabolic pathway entry was “ring opening and triple hydroxylation”; the “metabolic stability, % of remaining” value is listed as 52.60%. In the data set on U87MG glioblastoma cells, this compound had an IC50 of 13.6 ± 1.1 µM. In the data set on HepG2 hepatoma cells, the “hepatotoxic effect on HepG2” value is reported as “no hepatotoxic effects” and the HepG2 cell viability entry is given as “statistically significant decrease in cell viability”. Also, the Papp in “in vitro” was 0.19 ×10⁻⁶ cm/s. In addition, the “function at 5-HT6” value on 5-HT6 was “agonist”. Besides, the IC50 in the data set with U-251 glioblastoma cells was over 25 µM. Also, the IC50 in [2] amounted to 4.2 ± 0.4 µM. In addition, in data set [3], the “Solubility, 10% DMSO, 1 mM” value is recorded as “+ + +” and the “Solubility, 100% DMSO, 10 mM” value is recorded as “+ + +”. In data set [4], the half-inhibitory concentration (IC50) came out at 14.6 ± 0.5 µM.
As for `O=S1(=O)c2cccc3cccc(c23)N1CCCCCCNC1=Nc2ccccc2CN1` [PP 24, 3-{6-[(3,4-Dihydroquinazolin-2-yl)amino]hexyl}-2λ^6-thia-3-azatricyclo[6.3.1.0^4,^12]dodeca-1(11),4(12),5,7,9-pentaene-2,2-dione], in data set [1], the main metabolic pathway entry is given as “hydroxylation”. For the same compound, in data set [1], the “metabolic stability, % of remaining” value amounted to 93.13%. In addition, the IC50 with U87MG glioblastoma cells came to 13.6 ± 0.6 µM; in the data set with U-251 glioblastoma cells, 16.5 ± 1 µM; in [2], 7.9 ± 0.4 µM; in data set [4], 12.1 ± 1 µM. For the same compound, the “cytotoxic effect on HepG2” value in the data set on HepG2 hepatoma cells (10 μM) is listed as “strong cytotoxic effect”. In addition, the Papp in “in vitro” came to 0.73 ×10⁻⁶ cm/s. The selectivity index result in data set [2] (normal astrocytes versus cancer cell lines) is listed as “below 1”. Moreover, the “Solubility, 10% DMSO, 1 mM” value in [3] was “+ + +”. The “Solubility, 100% DMSO, 10 mM” value in data set [3] is “+ + +”.
As to `O=S(=O)(c1cccc2ccccc12)N1CCN(CCNC2=Nc3ccccc3CN2)CC1` [PP 6, N-{2-[4-(Naphthalene-1-sulfonyl)piperazin-1-yl]ethyl}-3,4-dihydroquinazolin-2-amine], the main metabolic pathway entry in data set [1] is “double hydroxylation and double bond reduction”. Besides, in data set [1], the “metabolic stability, % of remaining” value worked out at 72.76%. Also, the IC50 (in the data set on U87MG glioblastoma cells; in the data set on U-251 glioblastoma cells; in data set [4]) was over 25 µM each time. This compound returned a Ki at 5-HT5A of 328 nM. Besides, on 5-HT6, the “function at 5-HT6” value is “agonist”.
As to `O=S(=O)(NCCCCCCNc1ncc2ccccc2n1)c1cccc2ccccc12` [PP 15, N-{6-[(Quinazolin-2-yl)amino]hexyl}naphthalene-1-sulfonamide], in data set [1], the main metabolic pathway entry is “hydroxylation” and the “metabolic stability, % of remaining” value was determined as 48.07%. For the same compound, the IC50 with U87MG glioblastoma cells is over 25 µM. In the data set on HepG2 hepatoma cells, the “hepatotoxic effect on HepG2” value is “no hepatotoxic effects” and the HepG2 cell viability result is “statistically significant decrease in cell viability”. In addition, on 5-HT5A, the Ki worked out at 1090 nM. The compound also had a Papp in the data set “in vitro” of 0.13 ×10⁻⁶ cm/s. In addition, at 5-HT6, the Kb was found to be 48 nM and the “function at 5-HT6” value was “antagonist”. Further, the IC50 in the data set with U-251 glioblastoma cells is over 25 µM. Besides, in data set [3], the “Solubility, 10% DMSO, 1 mM” value is given as “+ + -” and the “Solubility, 100% DMSO, 10 mM” value is on record as “+ + -”. In data set [4], this compound had an IC50 of over 25 µM.
